Numbering of substitutions follows the chain as printed. Where “and” joins values, the source holds several entries; their conditions need not be identical. Identical values can stand only once. Like-named read-outs stand apart in the source and are kept apart here.
What was measured:
Format in all cases: cell-based
hTA1 [1] = target: T1, hTA1 (Homo sapiens, UniProt Q96RJ0); experiment: GloSensor cAMP accumulation assay, concentration response, wild-type hTA1 in transfected HEK293T cells; conditions: for Emax: HEK-293T; for Dose-response curves for asenapine vs endogenous trace amines / Normalized Luminescence Counts for WT hTA1: log[Compound]; for Dose-response curves for asenapine vs endogenous trace amines: replicate values (N=2); for Normalized Luminescence Counts for WT hTA1: replicate wells;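 on all read-outs here: luminescence read after 30 min compound exposure at room temperature in cells preloaded with D-Luciferin, reflecting Gs-driven cAMP rise, efficacy scaled to the maximal β-PEA response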
T1 construct: expressed in transfected cells; host or cells: HEK293T
T1 sequence (Q96RJ0 1-339): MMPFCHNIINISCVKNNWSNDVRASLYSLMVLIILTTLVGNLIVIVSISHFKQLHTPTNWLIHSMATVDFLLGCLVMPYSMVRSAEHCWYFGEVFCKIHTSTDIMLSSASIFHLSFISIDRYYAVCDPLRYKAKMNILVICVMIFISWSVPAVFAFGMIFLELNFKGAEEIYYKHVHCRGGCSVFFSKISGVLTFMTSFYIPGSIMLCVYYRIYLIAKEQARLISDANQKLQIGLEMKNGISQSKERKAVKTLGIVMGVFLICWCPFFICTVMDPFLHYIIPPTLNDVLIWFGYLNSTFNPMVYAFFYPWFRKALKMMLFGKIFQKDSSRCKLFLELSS

[2] = target: T2, β2AR-Nterm-hTA1-F112^3.41W (CryoEM Construct) (Homo sapiens, UniProt Q96RJ0, F112W); experiment: GloSensor cAMP accumulation assay, cryoEM construct; conditions: CryoEM Construct, n=2;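 further: cells transiently co-transfected with the receptor construct and GloSensor cAMP biosensor, luminescence read after 30 min compound exposure at room temperature in the dark as cAMP accumulation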
T2 construct: FLAG (N); 10xHis (N); TEV protease site (N); expressed in transfected cells; host or cells: HEK293T

hTA1 [3] = target: T1, hTA1; experiment: Screen of 89 aminergic compounds at 10 µM, cAMP accumulation in HEK293T cells; conditions: 10 µM of compound; HEK293T; threshold log2-fold change of 2;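 further: HEK293T cells co-transfected with hTA1 and GloSensor cAMP reporter, cAMP accumulation detected by luminescence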
hTA1 I290Y = target: T3, hTA1 I290Y (Homo sapiens, UniProt Q96RJ0, I290Y); experiment: GloSensor cAMP accumulation assay, I290Y mutant; conditions: for Normalized Luminescence Counts for Concentration Response Curves: I120Y, log[Agonist], single replicates
T3 construct: expressed in transfected cells; host or cells: HEK293T
T3 sequence (Q96RJ0 1-339 I290Y): T1 sequence (Q96RJ0 1-339) with I290Y

hTA1 b2N = target: T4, hTA1 b2N (Homo sapiens, UniProt Q96RJ0); experiment: GloSensor cAMP accumulation assay, b2N construct; conditions: b2N, n=2
T4 construct: read by me as the first 25 residues of β2AR (N); expressed in transfected cells; host or cells: HEK293T

hTA1 C5S = target: T5, hTA1 C5S (Homo sapiens, UniProt Q96RJ0, C5S); experiment: GloSensor cAMP accumulation assay, C5S mutant; conditions: C5S, n=2
T5 construct: expressed in transfected cells; host or cells: HEK293T
T5 sequence (Q96RJ0 1-339 C5S): T1 sequence (Q96RJ0 1-339) with C5S

[4] = read-out: Span ± SEM (Emax normalized to β-PEA)

T2 sequence (Q96RJ0 with tags, fused parts or gaps F112W): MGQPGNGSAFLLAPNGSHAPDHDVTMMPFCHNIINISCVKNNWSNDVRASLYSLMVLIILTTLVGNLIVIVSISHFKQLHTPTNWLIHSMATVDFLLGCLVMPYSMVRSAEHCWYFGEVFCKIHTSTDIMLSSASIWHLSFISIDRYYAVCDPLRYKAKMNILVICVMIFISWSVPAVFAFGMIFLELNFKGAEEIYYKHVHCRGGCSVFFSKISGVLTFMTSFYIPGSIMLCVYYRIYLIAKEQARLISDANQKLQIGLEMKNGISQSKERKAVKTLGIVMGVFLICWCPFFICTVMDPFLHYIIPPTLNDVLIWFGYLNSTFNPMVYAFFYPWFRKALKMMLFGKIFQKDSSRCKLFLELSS
T4 sequence (Q96RJ0 with tags, fused parts or gaps): as the sequence (Q96RJ0 with tags, fused parts or gaps F112W) above, with W137F counted along it

Which results are given for `CN1CC2c3ccccc3Oc3ccc(Cl)cc3C2C1` (stereo not shown) [asenapine]?
Emax (hTA1 [1]; WT, Avg of the experiment means, read-out: Emax values, Avg): 88.7%; Emax (hTA1 [1]; WT, Mean of one experiment (3 replicates), read-out: Emax values): 91%; Emax (hTA1 [1]; wt hTA1, relative to β-PEA, read-out: Emax): 88.7%; Emax values, Avg (hTA1 [1]; WT, Asenapine, average of the two experiments): 88.71; Emax values, Mean (hTA1 [1]; WT, Asenapine, mean of one experiment, 3 replicates): 91.0389 and 86.3756; Emax values (hTA1 [1]; WT, Mean of one experiment (3 replicates)): 86.3756; EC50 (hTA1 [1]; WT, Mean of one experiment (3 replicates), read-out: pEC50 values (converted)): 279 nM; Dose-response curves for asenapine vs endogenous trace amines (hTA1 [1]; M = -5): 79.6771 and 96.2124 and 92.251 and 83.6538 and 87.8328 and 80.7895; Normalized Luminescence Counts for WT hTA1 (hTA1 [1]; M = -5): 83.6538 and 87.8328 and 80.7895 and 79.6771 and 96.2124 and 92.251; Dose-response curves for asenapine vs endogenous trace amines (hTA1 [1]; M = -5.522): 74.87 and 93.5418 and 84.1725 and 79.0052 and 76.9861 and 71.9618; Normalized Luminescence Counts for WT hTA1 (hTA1 [1]; M = -5.522): 79.0052 and 76.9861 and 71.9618 and 74.87 and 93.5418 and 84.1725; Dose-response curves for asenapine vs endogenous trace amines (hTA1 [1]; M = -6): 68.5274 and 68.3939 and 69.9517 and 72.9948 and 71.8209 and 62.9463; Normalized Luminescence Counts for WT hTA1 (hTA1 [1]; M = -6): 72.9948 and 71.8209 and 62.9463 and 68.5274 and 68.3939 and 69.9517; Dose-response curves for asenapine vs endogenous trace amines (hTA1 [1]; M = -6.522): 47.5189 and 49.5663 and 40.1525 and 38.2946 and 48.7657 and 45.4788; Normalized Luminescence Counts for WT hTA1 (hTA1 [1]; M = -6.522): 38.2946 and 48.7657 and 45.4788 and 47.5189 and 49.5663 and 40.1525; Dose-response curves for asenapine vs endogenous trace amines (hTA1 [1]; M = -7): 27.8234 and 34.8114 and 20.9244 and 18.9489 and 23.9262 and 21.7193; Normalized Luminescence Counts for WT hTA1 (hTA1 [1]; M = -7): 18.9489 and 23.9262 and 21.7193 and 27.8234 and 34.8114 and 20.9244; Dose-response curves for asenapine vs endogenous trace amines (hTA1 [1]; M = -7.522): 9.085 and 11.3326 and 6.214 and 4.299 and 6.271 and 7.5856; Normalized Luminescence Counts for WT hTA1 (hTA1 [1]; M = -7.522): 4.299 and 6.271 and 7.5856 and 9.085 and 11.3326 and 6.214; Dose-response curves for asenapine vs endogenous trace amines (hTA1 [1]; M = -8): 5.413 and 6.147 and 6.2585 and 3.876 and 4.862 and 2.139; Normalized Luminescence Counts for WT hTA1 (hTA1 [1]; M = -8): 3.876 and 4.862 and 2.139 and 5.413 and 6.147 and 6.2585; Dose-response curves for asenapine vs endogenous trace amines (hTA1 [1]; M = -8.522): 0.6725 and 1.273 and 1.229 and 1.059 and 0.777 and -0.209; Normalized Luminescence Counts for WT hTA1 (hTA1 [1]; M = -8.522): 1.059 and 0.777 and -0.209 and 0.6725 and 1.273 and 1.229; Dose-response curves for asenapine vs endogenous trace amines (hTA1 [1]; M = -9): -0.2399 and 0.5835 and -0.9298 and -0.4438 and -0.06817 and 0.0727; Normalized Luminescence Counts for WT hTA1 (hTA1 [1]; M = -9): -0.4438 and -0.06817 and 0.0727 and -0.2399 and 0.5835 and -0.9298; Dose-response curves for asenapine vs endogenous trace amines (hTA1 [1]; M = -9.522): -1.597 and -0.5292 and -1.353 and -0.209 and -0.5377 and 0.777; Normalized Luminescence Counts for WT hTA1 (hTA1 [1]; M = -9.522): -0.209 and -0.5377 and 0.777 and -1.597 and -0.5292 and -1.353; Dose-response curves for asenapine vs endogenous trace amines (hTA1 [1]; M = -10): -0.6182 and -0.1064 and -0.8408 and -0.7725 and -0.5377 and -0.6786; Normalized Luminescence Counts for WT hTA1 (hTA1 [1]; M = -10): -0.7725 and -0.5377 and -0.6786 and -0.6182 and -0.1064 and -0.8408; Dose-response curves for asenapine vs endogenous trace amines (hTA1 [1]; M = -10.522): -0.9521 and -0.1509 and -1.197 and -0.8195 and -1.665 and -1.101; Normalized Luminescence Counts for WT hTA1 (hTA1 [1]; M = -10.522): -0.8195 and -1.665 and -1.101 and -0.9521 and -0.1509 and -1.197; Dose-response curves for asenapine vs endogenous trace amines (hTA1 [1]; M = -11): -0.9075 and -0.3289 and -0.7295 and -0.3969 and 0.2136 and 0.9649; Normalized Luminescence Counts for WT hTA1 (hTA1 [1]; M = -11): -0.3969 and 0.2136 and 0.9649 and -0.9075 and -0.3289 and -0.7295; Dose-response curves for asenapine vs endogenous trace amines (hTA1 [1]; M = -11.522): -0.863 and -0.01735 and -1.531 and -0.9603 and -0.5377 and -0.4908; Normalized Luminescence Counts for WT hTA1 (hTA1 [1]; M = -11.522): -0.9603 and -0.5377 and -0.4908 and -0.863 and -0.01735 and -1.531; Dose-response curves for asenapine vs endogenous trace amines (hTA1 [1]; M = -12): -1.108 and -0.6405 and -1.286 and -1.101 and -0.6786 and -1.477; Normalized Luminescence Counts for WT hTA1 (hTA1 [1]; M = -12): -1.101 and -0.6786 and -1.477 and -1.108 and -0.6405 and -1.286; Dose-response curves for asenapine vs endogenous trace amines (hTA1 [1]; M = -12.522): -1.575 and -1.241 and -2.02 and -0.5377 and -1.054 and -1.242; Normalized Luminescence Counts for WT hTA1 (hTA1 [1]; M = -12.522): -0.5377 and -1.054 and -1.242 and -1.575 and -1.241 and -2.02; EC50 (hTA1 [1]; wt hTA1, HEK293T, n=3, read-out: EC50): 274 nM; EC50 ([2]; read-out: EC50): 51.8 nM; Emax [2, 4]: 95.2 ± 1.98%; EC50 ([2]; read-out: pEC50 ± SEM (converted)): 52.5 nM; increase of signal over DMSO-treated controls (hTA1 activation) (hTA1 [3]): ≥ 4 fold; Normalized Luminescence Counts for Concentration Response Curves (hTA1 I290Y; M -7): 15.0486 and 28.2836 and 14.433 and 14.2815 and 11.35 and 10.6171 and 4.9397 and 9.4516 and 7.196; Normalized Luminescence Counts for Concentration Response Curves (hTA1 I290Y; M -7.522): 3.6603 and 8.277 and 2.121 and 8.052 and 3.288 and 0.7233 and -1.828 and 2.684 and 1.556; Normalized Luminescence Counts for Concentration Response Curves (hTA1 I290Y; M -8): 2.121 and 5.507 and 1.506 and 4.021 and -2.208 and 3.288 and -1.828 and -2.956 and -5.212; Normalized Luminescence Counts for Concentration Response Curves (hTA1 I290Y; M -8.522): -2.188 and 0.2746 and -1.264 and -1.842 (2×) and -4.04 and -6.34 and -5.212 (2×); Normalized Luminescence Counts for Concentration Response Curves (hTA1 I290Y; M -9): -1.572 and -0.6488 and -1.264 and -5.506 and -1.109 and -5.873 and -4.0841 and -5.212 (2×); Normalized Luminescence Counts for Concentration Response Curves (hTA1 I290Y; M -9.522): -3.419 and -1.264 and -3.7267 and -3.674 and -1.109 and -6.239 and -5.212 (2×) and -4.0841; Normalized Luminescence Counts for Concentration Response Curves (hTA1 I290Y; M -10): -2.496 and -2.188 and -2.803 and -2.575 and 2.189 and 2.922 and -4.0841 and -1.828 and -2.956; Normalized Luminescence Counts for Concentration Response Curves (hTA1 I290Y; M -10.522): -1.88 (2×) and -1.264 and -6.605 (2×) and -3.307 and -1.828 (2×) and -0.7002; Normalized Luminescence Counts for Concentration Response Curves (hTA1 I290Y; M -11): -2.188 and -1.88 and -2.496 and -2.575 and -5.506 and -7.705 and -6.34 and -4.0841 and -5.212; Normalized Luminescence Counts for Concentration Response Curves (hTA1 I290Y; M -11.522): -2.188 and -1.264 (2×) and -1.475 and -4.773 and -4.407 and -4.0841 (2×) and -2.956; Normalized Luminescence Counts for Concentration Response Curves (hTA1 I290Y; M -12): -3.111 and -2.496 and -2.188 and -5.873 and -5.14 and -2.941 and -1.828 and -2.956 and -4.0841; Normalized Luminescence Counts for Concentration Response Curves (hTA1 I290Y; M -12.522): -3.7267; Emax values of Asenapine (hTA1 I290Y; I290Y, Mean of one experiment): 56.131 and 42.2396; Emax (hTA1 I290Y; I290Y, Mean of one experiment, read-out: Emax values of Asenapine): 54.9%; EC50 (hTA1 I290Y; I290Y, Mean of one experiment, read-out: pEC50 values of Asenapine (converted)): 252 nM and 215 nM and 383 nM; EC50 (hTA1 I290Y; I290Y, read-out: EC50): 275 nM; Emax (hTA1 I290Y; I290Y, read-out: Span ± SEM (Emax normalized to β-PEA)): 51.1 ± 4.43%; Emax (hTA1 I290Y; I290Y, relative to β-PEA, read-out: Emax): 51.1%; ΔEmax values (each mutant value - WT average), I290Y, Mean (hTA1 I290Y; hTA1 I290Y mutant vs WT average, Figure 6B, each line is one experiment (3 replicates)): -33.855 and -32.5762 and -46.4677; EC50 (hTA1 b2N; read-out: EC50): 72.8 nM; Emax (hTA1 b2N; [4]): 97.39 ± 0.96%; EC50 (hTA1 C5S; read-out: EC50): 261 nM; Emax (hTA1 C5S; [4]): 83.2 ± 1.59%
